Experimental data published in article PMC9786881 (Viruses, 2022).

Target: RABV NΔ23^0 (nucleoprotein aa 24-450) (Rabies virus, UniProt Q8JXF6)
Assay type: binding, rabies virus (strain CVS-11)

CC[C@H](C)[C@H](NC(=O)[C@H](C)NC(=O)[C@H](CO)NC(=O)[C@@H]1CCCN1C(=O)[C@H](CC(N)=O)NC(=O)[C@@H](NC(=O)[C@H](Cc1ccccc1)NC(=O)[C@@H](NC(=O)[C@H](CCCCN)NC(=O)[C@H](CO)NC(=O)[C@H](CCSC)NC(=O)[C@H](CO)NC(=O)[C@H](C)NC(=O)CN)[C@@H](C)CC)C(C)C)C(=O)N[C@@H](CCCNC(=N)N)C(=O)N[C@@H](C)C(=O)NCC(=O)N[C@@H](CC(C)C)C(=O)N[C@@H](C)C(=O)N[C@@H](CC(=O)O)C(=O)N[C@@H](CC(C)C)C(=O)N[C@@H](CCC(=O)O)C(=O)N[C@@H](CCSC)C(=O)N[C@@H](C)C(=O)N[C@@H](CCC(=O)O)C(=O)N[C@@H](CCC(=O)O)C(=O)N[C@H](C(=O)N[C@H](C(=O)N[C@@H](CC(=O)O)C(=O)N[C@@H](CC(C)C)C(=O)N[C@H](C(=O)N[C@@H](CC(N)=O)C(=O)N[C@@H](CCCNC(=N)N)C(=O)N[C@@H](CC(N)=O)C(=O)N[C@H](C(=O)N[C@@H](CCC(=O)O)C(=O)N[C@@H](CC(=O)O)C(=O)N[C@@H](CC(N)=O)C(=O)N[C@@H](CCC(N)=O)C(=O)N[C@@H](C)C(=O)N[C@@H](Cc1c[nH]cn1)C(=O)N[C@@H](CC(C)C)C(=O)N[C@@H](CCC(N)=O)C(=O)N[C@@H](CSC1CC(=O)N(CCNC(=O)c2ccc3c(c2)C(=O)OC32c3ccc(O)cc3Oc3cc(O)ccc32)C1=O)C(=O)N[C@@H](CCC(=O)O)C(=O)O)[C@@H](C)CC)[C@@H](C)CC)C(C)C)[C@@H](C)O (stereo partly shown) [P42-G41C*]
half time of dissociation: 256 min
